The target of data set [1] is T1, human type 1 glycine transporter (GlyT1) (Homo sapiens, UniProt P48067).
T1 construct: Used in the experiment were T98G cells (glioma cells) developing a human type 1 glycine transporter of (GlyT1); endogenous in cells; host or cells: T98G human glioma cells
T1 sequence (P48067 1-706): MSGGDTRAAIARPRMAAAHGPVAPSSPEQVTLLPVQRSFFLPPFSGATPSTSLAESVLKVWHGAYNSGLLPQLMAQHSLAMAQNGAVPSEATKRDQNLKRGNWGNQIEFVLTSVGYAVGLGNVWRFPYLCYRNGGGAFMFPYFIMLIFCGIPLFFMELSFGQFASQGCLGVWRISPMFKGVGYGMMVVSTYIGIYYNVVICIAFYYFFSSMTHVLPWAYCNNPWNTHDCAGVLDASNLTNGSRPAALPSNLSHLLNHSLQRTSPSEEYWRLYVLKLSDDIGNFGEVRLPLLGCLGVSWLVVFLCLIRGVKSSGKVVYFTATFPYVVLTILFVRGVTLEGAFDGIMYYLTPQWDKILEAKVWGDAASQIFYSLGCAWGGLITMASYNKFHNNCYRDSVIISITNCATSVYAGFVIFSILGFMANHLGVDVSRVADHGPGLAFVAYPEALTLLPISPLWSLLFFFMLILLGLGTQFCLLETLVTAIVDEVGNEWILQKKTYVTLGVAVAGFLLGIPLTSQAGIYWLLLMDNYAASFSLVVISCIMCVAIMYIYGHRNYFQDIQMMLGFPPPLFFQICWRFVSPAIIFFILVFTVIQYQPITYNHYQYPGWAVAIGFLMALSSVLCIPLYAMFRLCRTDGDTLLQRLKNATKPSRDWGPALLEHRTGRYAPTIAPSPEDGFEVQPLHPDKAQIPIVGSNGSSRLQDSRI
Kind of data set: Glycine uptake inhibition experiment ([3H]glycine uptake in T98G cells). It counts as cell-based. To be noted: T98G glioma cells; [3H]glycine 250 nM; 10-min pretreatment; 15 min at room temperature; read-out: glycine uptake inhibiting activity (IC50). The method, then:
A glycine uptake inhibition experiment was conducted in accordance with the method described in Neuron, 8, 927-935, 1992. Used in the experiment were T98G cells (glioma cells) developing a human type 1 glycine transporter of (GlyT1). The T98G cells were seeded in a 96-well plate at a density of 2.0×10^4 cells per well and cultured overnight in a CO2 incubator. The test substance was first dissolved in a 100% DMSO solution and then dissolved in a 10 mM HEPES buffer solution (pH 7.4) supplemented with 150 mM sodium chloride, 1 mM calcium chloride, 5 mM potassium chloride, 1 mM magnesium chloride, 10 mM glucose, and 0.2% bovine serum albumin. After removing the cell culture medium, the test substance was subjected to a 10-min pretreatment. Thereafter, the test substance and [^3H] glycine (final concentration: 250 nM) were added to the cells and reaction was performed at room temperature for 15 minutes. After the end of the reaction, the extracellular fluid was aspirated with a manifold to remove the excess marker glycine present outside of the cells; thereafter, the cells were lysed with an aqueous solution of 0.5 M sodium hydroxide. The glycine content in the cells was determined by measuring the radioactivity in the cell lysate with a liquid scintillation counter. With the amount of glycine uptake in the presence of 10 μM ALX5407 being referred to as the nonspecific uptake, the amount of specific uptake was calculated by subtracting the amount of nonspecific uptake from the total amount of uptake in the absence of 10 μM ALX5407. In addition, glycine uptake inhibiting activity (IC50) was calculated from an inhibition curve for the concentration of the test substance ranging from 10^−9 to 10^−5 M.
It should be noted that ALX5407 is a HCl salt of N-[(3R)-3-([1,1′-biphenyl]-4-yloxy)-3-(4-fluorophenyl)propyl]-N-methylglycine.
Incidentally, Compound 56 which is recited as 2HCl salt in the above Table 1-6 was subjected to measurement as its free form in the Glycine Uptake Inhibition Experiment.

Data set [2] addresses T2, P-glycoprotein (P-gp), Human MDR1 (Homo sapiens, UniProt P08183).
T2 construct: expressed in transfected cells; host or cells: LLC-GAS-COL 300 cells (derived from pig kidney LLC-PK1)
Kind of data set: Test for recognizability of P-gp substrate (LLC-GAS-COL 300 cells, Transwell). It counts as in vitro ADME. To be noted: 10 μM; LLC-GAS-COL 300 cells (Human MDR1 in LLC-PK1); criteria of Nature Reviews Drug Discovery (2010) 9, 215-236. An excerpt: In order that drugs acting on the central nervous system will develop their efficacy, their passage from the blood to the brain is generally important. While various efflux transporters are present at the blood-brain barrier to control this passage of drugs, P-glylcoprotein (P-gp) is a typical example and inhibits the passage to the brain of any drugs that serve as the substrate for P-gp. Therefore, in the development of pharmaceuticals, nonrecognizability of a candidate drug as the substrate for P-gp is the key to its passage to the brain.
A test for recognizability of P-gp substrate was performed in accordance with a modified version of the methods described in J Pharmacol. Exp. Ther. (1992) Vol. 263, No. 2, 840-845 and J Biol. Chem. (1992) Vol. 267, No. 34, 24248-24252. To be more specific, LLC-GAS-COL 300 cells (Human MDR1 expressing system derived from pig kidney derived, cultured renal epithelial cell line LLC-PK1) were cultured for 4 days on a Transwell and replaced by a Hank's balanced salt solution (HBSS) in each well just before the test. A solution of an assay compound (a DMSO solution of the compound as diluted with HBSS and adjusted to a final concentration of 10 μM) was added to the donor side of the LLC-GAS-COL 300 cells and a prescribed amount of HBSS was collected from the acceptor side at given time intervals and the concentration of the assay compound in the collected sample was measured by LC-MS/MS.
From the cumulative amount of the compound's permeation into the acceptor, the membrane permeability coefficient (×10^−6 cm/sec) was calculated for each of apical→basal mode and basal→apical mode and the recognizability of P-gp substrate was assessed in terms of the ratio between the two modes (efflux ratio).

T2 sequence (P08183 whole entry): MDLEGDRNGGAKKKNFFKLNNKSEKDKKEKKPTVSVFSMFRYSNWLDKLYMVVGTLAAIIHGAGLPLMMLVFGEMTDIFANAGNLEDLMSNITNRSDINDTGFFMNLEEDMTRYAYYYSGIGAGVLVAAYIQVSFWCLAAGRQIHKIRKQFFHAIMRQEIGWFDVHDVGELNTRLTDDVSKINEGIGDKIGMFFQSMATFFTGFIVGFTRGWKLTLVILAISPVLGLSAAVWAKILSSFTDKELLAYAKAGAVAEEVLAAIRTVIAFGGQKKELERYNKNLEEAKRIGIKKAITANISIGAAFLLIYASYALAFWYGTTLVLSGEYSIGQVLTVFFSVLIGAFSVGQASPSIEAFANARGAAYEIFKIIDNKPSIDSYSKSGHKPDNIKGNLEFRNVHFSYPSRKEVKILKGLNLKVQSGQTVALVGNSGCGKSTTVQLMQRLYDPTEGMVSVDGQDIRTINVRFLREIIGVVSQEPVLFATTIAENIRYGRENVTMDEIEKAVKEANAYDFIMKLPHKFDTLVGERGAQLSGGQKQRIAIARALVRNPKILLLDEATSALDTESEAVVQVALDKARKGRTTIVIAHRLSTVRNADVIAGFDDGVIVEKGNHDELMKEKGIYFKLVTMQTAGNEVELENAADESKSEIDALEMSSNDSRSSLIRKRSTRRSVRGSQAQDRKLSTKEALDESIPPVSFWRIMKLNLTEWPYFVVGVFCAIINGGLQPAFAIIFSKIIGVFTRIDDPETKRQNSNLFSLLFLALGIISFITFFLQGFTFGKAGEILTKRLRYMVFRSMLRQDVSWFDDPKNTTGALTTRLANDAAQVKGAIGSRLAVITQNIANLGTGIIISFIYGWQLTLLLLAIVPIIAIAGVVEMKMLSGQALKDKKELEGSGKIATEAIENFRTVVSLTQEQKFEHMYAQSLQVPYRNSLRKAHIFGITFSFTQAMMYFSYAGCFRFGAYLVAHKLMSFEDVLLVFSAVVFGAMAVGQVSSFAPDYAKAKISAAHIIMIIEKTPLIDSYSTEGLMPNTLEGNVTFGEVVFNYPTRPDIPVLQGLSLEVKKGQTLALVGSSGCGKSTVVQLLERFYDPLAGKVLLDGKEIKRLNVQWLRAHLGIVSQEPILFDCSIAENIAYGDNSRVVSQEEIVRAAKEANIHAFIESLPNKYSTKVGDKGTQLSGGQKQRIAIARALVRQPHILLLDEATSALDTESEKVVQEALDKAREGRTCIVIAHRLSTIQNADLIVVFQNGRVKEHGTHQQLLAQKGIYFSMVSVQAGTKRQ

In the case of `CC(C)N(Cc1ccnc(-c2ccc(OC(F)(F)F)cc2)c1)C(=O)c1cn(C)cn1` [Compound 30], the IC50 in data set [1] was determined as 7.3 nM. Moreover, the “recognizability as P-gp substrate (from efflux ratio basal→apical / apical→basal)” value in data set [2] was “not recognizable as the substrate for P-gp”.

For orientation: IC50 means the concentration that gives 50% inhibition.

The values above are taken from patent US8729271B2, “Glycine transporter inhibiting substances” (Taisho Pharmaceutical Co., Ltd, priority 2010, dated 2014).
